Results from article PMC9481570, “A small molecule antagonist of SMN disrupts the interaction between SMN and RNAP II” (Nature Communications, 2022).
“And” between values parts separate entries of the source, which are not always exact repeats. Equal entries are not always repeated.

Experiments:
Assay in all cases: Affinity-purification and mass spectrometry (AP-MS) chemical proteomics, all proteins;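 on Difference: 200 µM free competitor with 20 µM biotin probe overnight in lysate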
Assay type in all cases: binding
[1] = target: T1, proteins displaced from immobilized biotin-Cmpd 1 pulldowns (U2OS cell lysate) (Homo sapiens, UniProt Q13765); conditions: GN=NACA (Q13765)
T1 construct: endogenous in cells; host or cells: U2OS

[2] = target: T2, proteins displaced from immobilized biotin-Cmpd 1 pulldowns (U2OS cell lysate) (Homo sapiens, UniProt P55072); conditions: GN=VCP (P55072)
T2 construct: endogenous in cells; host or cells: U2OS

[3] = target: T3, proteins displaced from immobilized biotin-Cmpd 1 pulldowns (U2OS cell lysate) (Homo sapiens, UniProt O75223); conditions: GN=GGCT (O75223)
T3 construct: endogenous in cells; host or cells: U2OS

[4] = target: T4, proteins displaced from immobilized biotin-Cmpd 1 pulldowns (U2OS cell lysate) (Homo sapiens, UniProt P06748); conditions: GN=NPM1 (P06748)
T4 construct: endogenous in cells; host or cells: U2OS

[5] = target: T5, proteins displaced from immobilized biotin-Cmpd 1 pulldowns (U2OS cell lysate) (Homo sapiens, UniProt P06733); conditions: GN=ENO1 (P06733)
T5 construct: endogenous in cells; host or cells: U2OS

[6] = target: T6, proteins displaced from immobilized biotin-Cmpd 1 pulldowns (U2OS cell lysate) (Homo sapiens, UniProt P01040); conditions: GN=CSTA (P01040)
T6 construct: endogenous in cells; host or cells: U2OS

[7] = target: T7, proteins displaced from immobilized biotin-Cmpd 1 pulldowns (U2OS cell lysate) (Homo sapiens, UniProt Q13573); conditions: GN=SNW1 (Q13573)
T7 construct: endogenous in cells; host or cells: U2OS

[8] = target: T8, proteins displaced from immobilized biotin-Cmpd 1 pulldowns (U2OS cell lysate) (Homo sapiens, UniProt P07339); conditions: GN=CTSD (P07339)
T8 construct: endogenous in cells; host or cells: U2OS

[9] = target: T9, proteins displaced from immobilized biotin-Cmpd 1 pulldowns (U2OS cell lysate) (Homo sapiens, UniProt P62136); conditions: GN=PPP1CA (P62136)
T9 construct: endogenous in cells; host or cells: U2OS

[10] = target: T10, proteins displaced from immobilized biotin-Cmpd 1 pulldowns (U2OS cell lysate) (Homo sapiens, UniProt O75683); conditions: GN=SURF6 (O75683)
T10 construct: endogenous in cells; host or cells: U2OS
T10 sequence (O75683 whole entry): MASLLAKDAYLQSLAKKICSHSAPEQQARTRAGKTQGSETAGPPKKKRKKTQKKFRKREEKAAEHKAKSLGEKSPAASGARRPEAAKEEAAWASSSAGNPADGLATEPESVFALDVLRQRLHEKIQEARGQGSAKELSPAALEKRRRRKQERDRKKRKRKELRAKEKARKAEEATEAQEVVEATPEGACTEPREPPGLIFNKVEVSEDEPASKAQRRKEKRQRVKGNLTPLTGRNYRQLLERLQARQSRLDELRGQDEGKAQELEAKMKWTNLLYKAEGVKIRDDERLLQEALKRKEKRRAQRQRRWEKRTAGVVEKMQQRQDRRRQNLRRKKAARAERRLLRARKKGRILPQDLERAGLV

T2 sequence (P55072 whole entry): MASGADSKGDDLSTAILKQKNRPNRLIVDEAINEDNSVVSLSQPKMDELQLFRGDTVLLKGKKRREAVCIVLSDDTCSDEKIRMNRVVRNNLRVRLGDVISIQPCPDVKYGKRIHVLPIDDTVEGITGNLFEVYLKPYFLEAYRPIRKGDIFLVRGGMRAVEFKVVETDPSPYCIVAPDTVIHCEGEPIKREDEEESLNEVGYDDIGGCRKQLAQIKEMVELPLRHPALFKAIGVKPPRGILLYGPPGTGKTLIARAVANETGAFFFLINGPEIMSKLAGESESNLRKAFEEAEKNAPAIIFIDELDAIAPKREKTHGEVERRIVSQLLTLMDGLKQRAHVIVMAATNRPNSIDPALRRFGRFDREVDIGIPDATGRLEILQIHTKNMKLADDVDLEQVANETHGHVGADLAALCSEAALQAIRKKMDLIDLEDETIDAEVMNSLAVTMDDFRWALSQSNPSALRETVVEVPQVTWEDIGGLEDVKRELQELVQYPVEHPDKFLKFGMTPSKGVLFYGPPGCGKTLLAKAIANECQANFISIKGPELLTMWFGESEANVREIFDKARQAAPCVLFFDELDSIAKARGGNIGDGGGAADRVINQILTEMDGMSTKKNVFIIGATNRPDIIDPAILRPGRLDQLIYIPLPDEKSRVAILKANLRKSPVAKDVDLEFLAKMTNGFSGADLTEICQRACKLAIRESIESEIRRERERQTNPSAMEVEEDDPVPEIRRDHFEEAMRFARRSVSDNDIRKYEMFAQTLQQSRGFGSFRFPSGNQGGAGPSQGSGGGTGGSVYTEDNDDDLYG
T7 sequence (Q13573 whole entry): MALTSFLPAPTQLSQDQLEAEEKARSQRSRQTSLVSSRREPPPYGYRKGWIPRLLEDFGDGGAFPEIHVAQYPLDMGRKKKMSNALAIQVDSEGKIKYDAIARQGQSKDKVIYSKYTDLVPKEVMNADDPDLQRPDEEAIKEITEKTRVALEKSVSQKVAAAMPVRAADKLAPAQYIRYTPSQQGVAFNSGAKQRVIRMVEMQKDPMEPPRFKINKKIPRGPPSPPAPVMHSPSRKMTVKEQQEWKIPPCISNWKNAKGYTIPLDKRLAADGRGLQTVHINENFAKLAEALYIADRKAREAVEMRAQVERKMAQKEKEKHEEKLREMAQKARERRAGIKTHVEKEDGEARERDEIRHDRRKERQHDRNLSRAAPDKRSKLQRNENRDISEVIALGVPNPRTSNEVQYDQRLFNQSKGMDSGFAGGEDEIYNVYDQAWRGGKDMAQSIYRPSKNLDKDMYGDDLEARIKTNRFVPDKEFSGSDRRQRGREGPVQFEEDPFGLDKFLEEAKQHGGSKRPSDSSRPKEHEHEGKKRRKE
T4 sequence (P06748 whole entry): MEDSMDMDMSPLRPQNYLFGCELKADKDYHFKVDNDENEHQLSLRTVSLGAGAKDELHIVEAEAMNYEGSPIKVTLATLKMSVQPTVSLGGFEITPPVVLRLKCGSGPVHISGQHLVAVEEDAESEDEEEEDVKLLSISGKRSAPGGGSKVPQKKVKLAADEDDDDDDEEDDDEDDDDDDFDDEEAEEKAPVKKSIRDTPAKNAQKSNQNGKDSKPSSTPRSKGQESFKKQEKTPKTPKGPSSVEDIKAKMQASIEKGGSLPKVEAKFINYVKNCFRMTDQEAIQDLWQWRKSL
T6 sequence (P01040 whole entry): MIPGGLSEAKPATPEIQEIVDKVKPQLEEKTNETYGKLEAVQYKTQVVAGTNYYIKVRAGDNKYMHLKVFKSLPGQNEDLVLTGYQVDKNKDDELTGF
T9 sequence (P62136 whole entry): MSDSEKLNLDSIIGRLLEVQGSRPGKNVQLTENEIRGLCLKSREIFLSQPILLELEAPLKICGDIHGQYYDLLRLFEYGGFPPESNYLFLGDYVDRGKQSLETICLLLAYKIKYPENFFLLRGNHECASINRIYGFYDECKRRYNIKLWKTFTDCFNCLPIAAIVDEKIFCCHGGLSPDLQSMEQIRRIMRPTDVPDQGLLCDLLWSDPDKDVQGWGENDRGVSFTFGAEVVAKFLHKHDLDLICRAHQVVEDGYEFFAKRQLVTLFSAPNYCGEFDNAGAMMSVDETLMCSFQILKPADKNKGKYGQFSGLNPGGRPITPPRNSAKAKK
T5 sequence (P06733 whole entry): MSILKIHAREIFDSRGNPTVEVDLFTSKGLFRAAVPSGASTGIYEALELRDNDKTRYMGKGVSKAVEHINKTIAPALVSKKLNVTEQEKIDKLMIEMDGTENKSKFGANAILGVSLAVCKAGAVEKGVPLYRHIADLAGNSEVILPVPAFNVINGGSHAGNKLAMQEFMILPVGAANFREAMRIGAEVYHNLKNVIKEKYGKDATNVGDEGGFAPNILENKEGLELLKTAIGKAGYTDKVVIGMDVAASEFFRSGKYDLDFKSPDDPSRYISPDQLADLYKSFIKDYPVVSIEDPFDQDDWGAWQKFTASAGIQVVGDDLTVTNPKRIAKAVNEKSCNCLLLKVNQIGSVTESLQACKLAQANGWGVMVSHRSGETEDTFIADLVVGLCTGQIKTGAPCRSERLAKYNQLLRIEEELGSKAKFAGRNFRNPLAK
T3 sequence (O75223 whole entry): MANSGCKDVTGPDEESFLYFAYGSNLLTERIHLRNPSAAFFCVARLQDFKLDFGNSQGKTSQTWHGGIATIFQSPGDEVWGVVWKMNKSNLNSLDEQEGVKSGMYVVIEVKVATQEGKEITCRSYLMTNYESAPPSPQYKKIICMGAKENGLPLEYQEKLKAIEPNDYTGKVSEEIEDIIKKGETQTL
T8 sequence (P07339 65-412): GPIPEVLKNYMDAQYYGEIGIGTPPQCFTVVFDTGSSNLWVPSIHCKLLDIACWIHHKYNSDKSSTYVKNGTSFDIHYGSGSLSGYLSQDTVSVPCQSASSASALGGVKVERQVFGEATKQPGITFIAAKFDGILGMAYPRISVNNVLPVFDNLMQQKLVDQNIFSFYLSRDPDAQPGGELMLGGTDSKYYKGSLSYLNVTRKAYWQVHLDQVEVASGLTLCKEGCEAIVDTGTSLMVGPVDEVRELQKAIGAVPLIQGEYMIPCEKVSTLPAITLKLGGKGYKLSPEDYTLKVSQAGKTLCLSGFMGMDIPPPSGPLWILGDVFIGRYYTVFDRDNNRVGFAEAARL

SMILES: Cn1c2c(c(=N)c3c1CCC3)CCC2 [Compound 1, 4-methyl-2,3,4,5,6,7-hexahydrodicyclopenta[b,e]pyridin-8(1H)-imine]
- Difference ([1]; Cmpd minus DMSO, -LOG(P-value) 0.904761): 3.386
- iBAQ Cmpd ([1]; replicates 1-3): 21.59 and 20.9827 and 19.5819
- Difference ([2]; Cmpd minus DMSO, -LOG(P-value) 1.20929): 2.227
- iBAQ Cmpd ([2]; replicates 1-3): 18.6461 and 18.1931 and 16.8577
- Difference ([3]; Cmpd minus DMSO, -LOG(P-value) 0.708043): -1.888
- iBAQ Cmpd ([3]; replicates 1-3): 19.1406 and 20.1765 and 18.5823
- Difference ([4]; Cmpd minus DMSO, -LOG(P-value) 0.76043): -0.4033
- iBAQ Cmpd ([4]; replicates 1-3): 27.3171 and 27.18 and 26.7127
- Difference ([5]; Cmpd minus DMSO, -LOG(P-value) 1.38674): -0.4405
- iBAQ Cmpd ([5]; replicates 1-3): 21.5649 and 21.7568 and 21.506
- Difference ([6]; Cmpd minus DMSO, -LOG(P-value) 0.909034): -0.9866
- iBAQ Cmpd ([6]; replicates 1-3): 23.1983 and 23.5243 and 22.4826
- Difference ([7]; Cmpd minus DMSO, -LOG(P-value) 1.77748): 2.177
- iBAQ Cmpd ([7]; replicates 1-3): 17.1233 and 17.0397 and 16.2301
- Difference ([8]; Cmpd minus DMSO, -LOG(P-value) 0.933319): -3.118
- iBAQ Cmpd ([8]; replicates 1-3): 18.4576 and 18.593 and 15.0798
- Difference ([9]; Cmpd minus DMSO, -LOG(P-value) 1.15373): 2.296
- iBAQ Cmpd ([9]; replicates 1-3): 15.2178 and 17.9982 and 17.5212
- Difference ([10]; Cmpd minus DMSO, -LOG(P-value) 1.38004): 2.68
- iBAQ Cmpd ([10]; replicates 1-3): 19.6513 and 20.3325 and 21.9506
